# According to US20220305001A1, “METHODS OF TREATING ACUTE MYELOID LEUKEMIA WITH FARNESYLTRANSFERASE INHIBITORS” (Kura Oncology, Inc., priority 2019, published 2022):
# Assays:
# [1] = system: AML; experiment: Tipifarnib treatment of previously untreated elderly or unfit AML patients, survival analysed by mRNA expression of FLT3LG/CXCR4; format: in vivo, human
# Experimental: (§1) Previous clinical studies with tipifarnib were performed in newly diagnosed AML in elderly patients with poor risk AML or relapsed and refractory AML. In these studies, patient selection was not based on genetic markers. Anecdotal evidence of tipifarnib single agent activity was reported.
# [2] = system: AML; experiment: Tipifarnib treatment of relapsed or refractory AML patients, survival analysed by mRNA expression of FLT3LG/CXCR4; format: in vivo, human
# Experimental: as §1
# [3] = highest FLT3LG expression tertile
# [4] = second FLT3LG expression tertile
# [5] = third tertile (lowest level of FLT3LG expression)
# [6] = first three quartiles of FLT3LG expression
# [7] = highest FLT3LG tertile and highest CXCR4 tertile (N=10)
# [8] = highest quintile of FLT3LG expression
# [9] = rest of patients with either lower FLT3LG or lower CXCR4 expression (N=47)
smiles,measurement,setting,value
Cn1cncc1[C@@](N)(c1ccc(Cl)cc1)c1ccc2c(c1)c(-c1cccc(Cl)c1)cc(=O)n2C [tipifarnib],median overall survival (mOS),[1]; [3],548 days
same,median progression free survival (mPFS),[1]; [3],247 days
same,median overall survival (mOS),[1]; [4],153 days
same,median progression free survival (mPFS),[1]; [4],64 days
same,median overall survival (mOS),[1]; [5],76 days
same,median progression free survival (mPFS),[1]; [5],35 days
same,median overall survival (mOS),[2]; [6],54 to 83 days
same,median progression free survival (mPFS),[2]; [6],28 to 29 days
same,median overall survival (mOS),[2]; [7],234 days
same,median progression free survival (mPFS),[2]; [7],148 days
same,median overall survival (mOS),[2]; [8],234 days
same,median progression free survival (mPFS),[2]; [8],119 days
same,median overall survival (mOS),[2]; [9],84 days
same,median progression free survival (mPFS),[2]; [9],29 days
